Laboratory results as given in patent US10869926B2, “Suppression of myeloid derived suppressor cells and immune checkpoint blockade” (The Johns Hopkins University, priority 2014, dated 2020).
Where “and” joins values, the source holds several entries; their conditions need not be identical. Equal values may be shown once.

Legend:
4T1 cells = assay: In vitro survival assay (WST-1); format: cell-based, murine; details: 24 hours, 0 to 50 μM
Method: 4T1 (CRL-2539, murine breast tumor cells) and CT26 (CRL-2638, murine colorectal adenocarcinoma) were purchased from ATCC. Both tumor cell lines were grown in McCoy's 5A supplemented with 10% Fetal Bovine Serum at 37° C., 5% CO2.
MDSCs and CD8^+ T cells were plated on 96-well plate at 2×10^6 cells/ml in RPMI1640 medium supplemented with 10% FBS. CD8^+ T cell cultures were supplemented with recombinant interleukin-2 (Invitrogen Life Technologies) at 2000 U/ml. 4T1 cells in McCoy 5A supplemented with 10% FBS were plated on 96-well plate and cultured until they reached >70% confluency. Cells were cultured with entinostat, 5-azacytidine, or J32 at concentrations ranging from 0 μM to 50 μM for 24 hours at 37° C., 5% CO2. The proportion of viable cells was assessed by incubating the cells with 10% (v/v) Cell Proliferation Reagent WST-1 (Roche Applied Science) for 3 hours at 37° C. and measuring OD450 absorbance of the resulting formazan products.

4T1 tumors = assay: 4T1 primary tumors and metastatic lesions (metastasis analysis); format: in vivo, BALB/c mice; details: for metastases (in words) / primary tumors (in words): 4T1, sacrificed six weeks after tumor implantation; for Liver Mets / Lung Mets / Primary Tumor Vol (mm^3) / Spleen Mets: six weeks after tumor implantation
Method: Tumor volume was calculated as length×width×0.5.
On day 46 post-tumor implantations, 4T1 tumor bearing mice were euthanized according to the IACUC guidelines. Lungs, livers and spleens were harvested and fixed in 10% Neutral Buffered Formalin Solution (Sigma-Aldrich) and metastatic nodules were counted from at least three mice per group.

G-MDSCs [1] = assay: In vitro survival assay (WST-1); format: cell-based, mouse; details: 24 hours, 0 to 50 μM
Excerpt: (§2) MDSCs from 4T1 tumor-bearing animals were isolated from spleens using Myeloid-Derived Suppressor Cell Isolation Kit, mouse (Miltenyi Biotec) and BD FACS Aria III cell sorter (BD Biosciences). CD8^+ cells were isolated from spleens of 4T1-bearing animals treated with anti-PD-1 and anti-CTLA-4 antibodies using CD8a^+ T Cell Isolation Kit II, mouse (Miltenyi Biotec) and BD FACS Aria III cell sorter (BD Biosciences). MDSC, Tregs, and CD8^+ T cells were isolated and cultured by following the manufacturer's protocols and published protocols (38, 39). The purity of G-MDSCs (CD11b^+Ly6G^+Ly6C^loF4/80^−MHC-II^−) and CD8^+ (CD3^+CD8^+) populations were greater than 95% as determined by flow cytometry, and the viability was greater than 95% for these populations as determined by trypan blue staining.
(§3) MDSCs and CD8^+ T cells were plated on 96-well plate at 2×10^6 cells/ml in RPMI1640 medium supplemented with 10% FBS. CD8^+ T cell cultures were supplemented with recombinant interleukin-2 (Invitrogen Life Technologies) at 2000 U/ml. […] The proportion of viable cells was assessed by incubating the cells with 10% (v/v) Cell Proliferation Reagent WST-1 (Roche Applied Science) for 3 hours at 37° C. and measuring OD450 absorbance of the resulting formazan products.

[2] = tested on: MHC-I, B2M and TAP1 genes in CT26 cells; assay: RT-PCR of genes involved in MHC-I presentation; format: cell-based, murine; details: CT26 cells cultured in vitro
Method: (§1) 5×10^6 CT26 or 4T1 cells were resuspended in 0.75 ml Trizol LS Reagent (Invitrogen Life Technologies) and 0.25 ml chloroform (Sigma-Aldrich). Samples were vortexed for 15 seconds and incubated for 10 minutes at 20° C. […] Samples were centrifuged at 12000 g for 10 minutes at 4° C. after 10 minute incubation at 20° C. The resulting pellets were air dried for less than 10 minutes and were resuspended with RNAse-free water (Invitrogen Life Technologies) for a final concentration of 500 ng/μl. PCR was performed using SuperScript III One-Step RT-PCR System with Platinum Taq DNA Polymerase (Invitrogen Life Technologies). Annealing temperature was set at 55° C. for H-2D(d), β2m and TAP1, and set at 60° C. for β-actin. […] The following […] used for RT-PCR: H-2D(d) Forward [NT] (SEQ ID NO: 1), H-2D(d) Reverse [NT] ID NO: 2), β2m Forward [NT] ID NO: 3), β2m Reverse [NT] ID NO: 4), TAP1 Forward [NT] ID NO: 5), TAP1 Reverse [NT] ID NO: 6), β-actin Forward [NT] ID NO: 7), β-actin Reverse [NT] ID NO: 8).

[3] = tested on: MHC-I, B2M and TAP1 genes in 4T1 cells; assay: RT-PCR of genes involved in MHC-I presentation; format: cell-based, murine; details: 4T1 cells cultured in vitro
Method: as §1

[4] = mouse, in vivo
Method: Body weight measurements. BALB/c mice bearing 4T1 tumors were treated with indicated therapeutic modalities. Their body weights were measured and recorded regularly after treatments. Means and standard deviations of data are shown.
Six to eight weeks old female BALB/C mice (Harlan Laboratories) were used for all animal experiments. 5×10^6 4 T1 tumor cells or 5×10^6 CT26 tumor cells were inoculated subcutaneously into the right flank of each mouse. Tumors were allowed to grow for 11 days prior to randomization and treatment. CT26 bearing mice were given 10 mg/kg of anti-PD-1 and/or anti-CTLA-4 antibodies intraperitoneally on day 11, 13, 15, 17, 20, 23 and 26 post-tumor implantations and 4T1 bearing mice were given 10 mg/kg anti-PD-1 and/or anti-CTLA-4 antibodies intraperitoneally on day 11, 13, 15, and 17 post-tumor implantations. 4T1 tumor bearing mice were given a single dose of 10 mg/kg anti-CD25 antibody or 10 mg/kg anti-Ly6G antibody intraperitoneally on day 12 post-tumor implantation for cell depletion studies. All antibodies were diluted to appropriate concentrations in 100 μl sterile PBS, pH 7.4 (Invitrogen Life Technologies). […] 4T1 bearing mice were injected intraperitoneally on day 12, 14, 16, and 18. […] Tumor volume was calculated as length×width×0.5.

CD8+ T cells = assay: In vitro survival assay (WST-1); format: cell-based, mouse; details: 24 hours, 0 to 50 μM
Excerpt: as §2, §3

G-MDSCs [5] = assay: Flow cytometry of G-MDSCs in 4T1 tumor-bearing mice; format: in vivo, BALB/c mice; details: added to / in combination with PD-1/CTLA-4 inhibition
Excerpt: The following antibodies and reagents were used for flow cytometry: CD16/32 (BD Biosciences), CD3e Alexa Fluor 488 (14-C11; BD Biosciences), CD4 Brilliant Violet 421 (GK1.5, BD Biosciences), CD8a PerCP-Cy5.5 (53-6.7, BD Biosciences), CD25 PE (PC61, BD Biosciences), Foxp3 Alexa Fluor 647 (MF23, BD Biosciences), CD11b Alexa Fluor 700 (M1/70, BD Biosciences), I-A/I-E Alexa Fluor 488 (M5/114.15.2, BD Biosciences), Ly-6C PerCP-Cy5.5 (AL-21, BD Biosciences), CD11c PE (HL3, BD Biosciences), F4/80 APC (BM8, Biolegend), Ly-6G Pacific Blue (1A8, Biolegend), CD45 Pacific Orange (30-F11, Invitrogen Life Technologies), and Live/Dead Fixable Near IR Dead Cell Stain (Invitrogen Life Technologies). Flow cytometry was performed with LSR II (BD Biosciences) and the data was analyzed with FACS Diva software (BD Biosciences). To assess the level of circulating G-MDSC population, blood samples were collected from the mice 7 days after the initiation of the anti-PD-1/anti-CTLA-4 antibody treatments with or without 5-AZA/Entinostat. […] CD8^+ T cell level was assessed using previously established phenotypic criteria of CD45^+CD3^+CD8^+ and total CD45^+CD3^+ cells was used as a common denominator. Treg cell level was assessed using previously established phenotypic criteria of CD45^+CD3^+CD4^+CD25^+FoxP3^+ and total CD45^+CD3^+CD4^+ cells were used as a common denominator.

[6] = tested on: IFN-γ secretion in co-cultures of G-MDSCs and CD8+ T cells; assay: IFN-γ assay in G-MDSC / CD8+ T cell co-cultures (ELISA); format: cell-based, mouse; details: G-MDSC to CD8+ T cell ratio 1:1, 24 hours, 0 to 0.25 μM
Method: Freshly isolated MDSCs and CD8^+ T cells from 4T1 tumor-bearing animals were cultured at MDSC to CD8^+ T cell ratios of 5:1, 2:1, 1:1, 1:2, and 1:5 in presence of recombinant IL-2 (Invitrogen Life Technologies) at 2000 U/mL and CD3/CD28 antibody coated beads (Miltenyi). MDSC and CD8^+ T cells were cultured at 1:1 ratio with entinostat at concentrations ranging from 0 μM to 0.25 μM. Cell-free supernatants were collected after 24-hour incubation at 37° C. and IFN-γ levels were assayed using Mouse IFN-γ DuoSet Elisa Development Kit (R&D Systems) according to the manufacturer's instruction.

[7] = individual mouse, listed as ENT

SMILES | cell viability (4T1 cells) | metastases (in words) (4T1 tumors) | primary tumors (in words) (4T1 tumors) | Liver Mets (4T1 tumors; AVERAGE of group) | Lung Mets (4T1 tumors; AVERAGE of group) | Primary Tumor Vol (mm^3) (4T1 tumors; AVERAGE of group) | Spleen Mets (4T1 tumors; AVERAGE of group) | cell viability (G-MDSCs [1]) | expression of MHC-I, B2M and TAP1 genes [2] | expression of MHC-I, B2M and TAP1 genes [3] | further results
Nc1ncn([C@@H]2O[C@H](CO)[C@@H](O)[C@H]2O)c(=O)n1 [AZA, 5-azacytidine] | unresponsive | unable to eradicate either primary tumor or metastasis | unable to eradicate either primary tumor or metastasis | 12 | 17 | 2750 | 1 | no effect at comparable concentrations | did not significantly increase the expression | did not significantly increase the expression | Liver Mets (4T1 tumors; individual mouse): 0 (3×) and 43 and 16; Lung Mets (4T1 tumors; individual mouse): 20 (2×) and 16 and 17 and 14; Primary Tumor Vol (mm^3) (4T1 tumors; individual mouse): 2345 mm^3 and 2454 mm^3 and 2477 mm^3 and 4358 mm^3 and 2117 mm^3; Spleen Mets (4T1 tumors; individual mouse): 0 (3×) and 3 and 1
Nc1ccccc1NC(=O)c1ccc(CNC(=O)OCc2cccnc2)cc1 [entinostat] | unresponsive | unable to eradicate either primary tumor or metastasis | unable to eradicate either primary tumor or metastasis | 4 | 17 | 3483 | 1 | markedly reduced viability | did not significantly increase the expression | did not significantly increase the expression | toxicity as indicated by body weight changes [4]: Temporary self-limiting toxicity; cell viability (CD8+ T cells): only modest effects; Liver Mets (4T1 tumors; [7]): 10 and 3 and 0 (2×) and 6; Lung Mets (4T1 tumors; [7]): 25 and 20 (2×) and 0 and 22; Primary Tumor Vol (mm^3) (4T1 tumors; [7]): 3005 mm^3 and 5038 mm^3 and 2275 mm^3 and 3063 mm^3 and 4032 mm^3; Spleen Mets (4T1 tumors; [7]): 1 and 0 (3×) and 3; number of circulating G-MDSCs (G-MDSCs [5]): striking reduction in the number of circulating G-MDSCs; IFN-γ secretion inhibited by G-MDSCs [6]: reversed the inhibition in a dose-dependent manner
